Laboratory results taken from US20130158035A1, “[…] COMPOUNDS” (Brigham Young University, priority 2010, published 2013).

The molecules below were run on MDCK cells (assay: HGF-induced epithelial-mesenchymal transition / migration of MDCK cells on transwell filters (crystal violet densitometry)). Conditions: Table 1; 10 μM compound, then HGF, 24 hours; percentage like untreated controls (unstimulated cells = maximal effect, HGF only = nil).
Format: cell-based
Procedure: MDCK cells were seeded at confluency into the wells of a transwell filter in DMEM with 10% fetal bovine serum. Cells were cultured for 24 hours. Test compounds, dissolved in DMSO, were added to each test well to a 10 μM final concentration, and then hepatocyte growth factor (HGF) was then added. The MDCK cells were cultured for 24 hours. Concurrently, controls treated with and without HGF and with no test compounds were also prepared.
After post-HGF addition culturing, transwell filters were prepared by repeated washing using ice cold PBS. The cells were then fixed with paraformaldehyde (3.7%) on ice for 15 minutes to the filters. After fixation, the transwell filters were washed repeatedly with PBS followed by staining with crystal violet for 15 minutes. The transwell filters were washed again with distilled water.
The upper surface of the transwell filters were swabbed using a cotton-tipped probe. The filters were photographed using a gel documentation system. Densitometry measurements were made on the test samples and compared with control samples.

Row | Compound | Assay Value
1 | O=C1CC(c2cc(F)ccc2F)c2cc3c(cc2N1)CCC3 (centres unmarked) [Compound 2] | 90.3%
2 | COc1cc(C2CC(=O)Nc3cc4c(cc32)OCCO4)cc(OC)c1OC (centres unmarked) [Compound 3] | 92.4%
3 | O=C1CC(c2cc(Br)ccc2F)c2cc3c(cc2N1)CCC3 (centres unmarked) [Compound 4] | 36.1%
4 | COc1cc(Br)c(C2CC(=O)Nc3cc4c(cc32)OCCO4)cc1OC (centres unmarked) [Compound 5] | 29.3%
5 | COc1cc(C2CC(=O)Nc3cc4c(cc32)OCCO4)cc(Br)c1OC (centres unmarked) [Compound 6] | 52.2%
6 | O=C1CC(c2cccc3ccccc23)c2cc3c(cc2N1)OCCO3 (centres unmarked) [Compound 7] | 17.1%
7 | CCOc1c(Br)cc(C2CC(=O)Nc3cc4c(cc32)OCCO4)cc1OC (centres unmarked) [Compound 8] | 48.8%
8 | CCOc1ccc(Br)cc1C1CC(=O)Nc2cc3c(cc21)OCCO3 (centres unmarked) [Compound 9] | 64.9%
9 | COc1ccc(Cl)cc1C1CC(=O)Nc2cc3c(cc21)OCCO3 (centres unmarked) [Compound 10] | 62.9%
10 | O=C1CC(c2cc(Br)ccc2F)c2cc3c(cc2N1)OCCO3 (centres unmarked) [Compound 11] | 27.9%
11 | O=C1CC(c2ccccc2F)c2cc3c(cc2N1)OCCO3 (centres unmarked) [Compound 12] | 23.4%
12 | COc1cc2c(cc1OC)C(c1cccc(Cl)c1Cl)CC(=O)N2 (centres unmarked) [Compound 13] | >5%
13 | Cc1ccc(C)c(C2CC(=O)Nc3cc4c(cc32)OCCO4)c1 (centres unmarked) [Compound 14] | 8.8%
14 | COc1ccc(C2CC(=O)Nc3cc4c(cc32)OCCO4)cc1OC (centres unmarked) [Compound 15] | 12.9%
15 | COc1ccc(OC)c(C2CC(=O)Nc3cc4c(cc32)OCCO4)c1 (centres unmarked) [Compound 16] | 15.1%
16 | COc1cccc(C2CC(=O)Nc3cc4c(cc32)OCCO4)c1 (centres unmarked) [Compound 17] | 10.7%
17 | CCOc1cc(C2CC(=O)Nc3cc4c(cc32)OCCO4)ccc1O (centres unmarked) [Compound 18] | 15.9%
18 | O=C1CC(c2cccc(O)c2)c2cc3c(cc2N1)OCCO3 (centres unmarked) [Compound 19] | 7.8%
19 | O=C1CC(c2cc3c(cc2Cl)OCO3)c2cc3c(cc2N1)OCCO3 (centres unmarked) [Compound 20] | 5.9%
20 | O=C1CC(c2ccc(F)c(Br)c2)c2cc3c(cc2N1)OCCO3 (centres unmarked) [Compound 21] | 11.2%
21 | COc1cc2c(c(OC)c1)C(c1cc(OC)ccc1OC)CC(=O)N2 (centres unmarked) [Compound 22] | 8.8%
22 | COc1cccc(C2CC(=O)Nc3cc4c(cc32)OCCO4)c1OC (centres unmarked) [Compound 23] | 69.3%
23 | COc1ccc(C2CC(=O)Nc3cc4c(cc32)OCCO4)cc1 (centres unmarked) [Compound 24] | 100%
24 | COc1cccc(C2CC(=O)Nc3cc4c(cc32)CCC4)c1OC (centres unmarked) [Compound 26] | 90.4%
25 | O=C1CC(c2cc3c(cc2Br)OCO3)c2cc3c(cc2N1)CCC3 (centres unmarked) [Compound 27] | 87.2%
26 | O=C1CC(c2ccccc2C(F)(F)F)c2cc3c(cc2N1)CCC3 (centres unmarked) [Compound 28] | 95.2%
27 | COc1cccc(C2CC(=O)Nc3cc4c(cc32)CCC4)c1 (centres unmarked) [Compound 29] | 69.3%
28 | COc1ccc(OC)c(C2CC(=O)Nc3cc(OC)c(OC)c(OC)c32)c1 (centres unmarked) [Compound 30] | 52.3%
29 | COc1cc(C2CC(=O)Nc3cc4c(cc32)OCCO4)cc(OC)c1O (centres unmarked) [Compound 32] | 88.2%

Same assay, conditions: Table 2; 10 μM compound, then HGF, 24 hours; percentage like untreated controls (unstimulated cells = maximal effect, HGF only = nil)

Row | Compound | Assay Value
30 | CCOc1ccccc1C1CC(=O)Nc2cc(C)c(C)cc21 (centres unmarked) [Compound 33] | <5%
31 | COc1ccccc1C1CC(=O)Nc2cc(C)c(C)cc21 (centres unmarked) [Compound 34] | <5%
32 | O=C1CC(c2ccccc2Br)c2cc3c(cc2N1)OCCO3 (centres unmarked) [Compound 36] | <5%
33 | O=C1CC(c2ccccc2Cl)c2cc3c(cc2N1)OCCO3 (centres unmarked) [Compound 37] | <5%
34 | COc1ccccc1C1CC(=O)Nc2cc3c(cc21)OCCO3 (centres unmarked) [Compound 38] | <5%
35 | CCOc1c(Br)cc(C2CC(=O)Nc3cc(OC)c(OC)cc32)cc1OC (centres unmarked) [Compound 39] | <5%
36 | COc1cc2c(cc1OC)C(c1ccccc1C)CC(=O)N2 (centres unmarked) [Compound 40] | <5%
37 | COc1cc2c(cc1OC)C(c1cccc(Cl)c1)CC(=O)N2 (centres unmarked) [Compound 41] | <5%
38 | COc1cc2c(cc1OC)C(c1ccccc1OCc1ccccc1)CC(=O)N2 (centres unmarked) [Compound 42] | <5%
39 | CCCOc1ccc(C2CC(=O)Nc3cc(OC)c(OC)cc32)cc1 (centres unmarked) [Compound 43] | <5%
40 | O=C1CC(c2cccc(F)c2)c2cc3c(cc2N1)OCCO3 (centres unmarked) [Compound 44] | <5%
41 | Cc1ccccc1C1CC(=O)Nc2cc3c(cc21)OCCO3 (centres unmarked) [Compound 45] | <5%
42 | COc1cccc(C2CC(=O)Nc3cc4c(cc32)OCCO4)c1OC (centres unmarked) [Compound 46] | <5%
43 | CCCCOc1ccccc1C1CC(=O)Nc2cc(OC)c(OC)cc21 (centres unmarked) [Compound 47] | <5%
44 | COc1cc(Br)c(C2CC(=O)Nc3cc(OC)c(OC)cc32)cc1OC (centres unmarked) [Compound 48] | <5%
45 | COc1cc2c(cc1OC)C(c1ccc(Cl)cc1Cl)CC(=O)N2 (centres unmarked) [Compound 49] | <5%
46 | CC(C)Oc1ccccc1C1CC(=O)Nc2cc3c(cc21)OCCO3 (centres unmarked) [Compound 50] | <5%
47 | O=C1CC(c2ccc(Cl)c(Cl)c2)c2cc3c(cc2N1)OCCO3 (centres unmarked) [Compound 51] | <5%
48 | COc1cc2c(cc1OC)C(c1cc(Br)c(OC)c(OC)c1)CC(=O)N2 (centres unmarked) [Compound 52] | <5%

Row | Compound | Assay Value
49 | O=C1CC(c2ccc([N+](=O)[O-])cc2)c2cc3c(cc2N1)OCCO3 (centres unmarked) [Compound 53] | <5%
50 | Cc1ccc(C2CC(=O)Nc3cc4c(cc32)OCCO4)cc1 (centres unmarked) [Compound 54] | <5%
51 | COc1cc2c(cc1OC)C(c1ccc(Cl)cc1)CC(=O)N2 (centres unmarked) [Compound 55] | <5%
52 | O=C1CC(c2ccccc2OCc2ccccc2)c2cc3c(cc2N1)OCCO3 (centres unmarked) [Compound 56] | <5%
53 | COc1cc2c(cc1OC)C(c1cc(C)ccc1C)CC(=O)N2 (centres unmarked) [Compound 57] | <5%
54 | O=C1CC(c2cccc(OCc3ccccc3)c2)c2cc3c(cc2N1)OCCO3 (centres unmarked) [Compound 58] | <5%
55 | COc1cc2c(cc1OC)C(c1cccc(Br)c1)CC(=O)N2 (centres unmarked) [Compound 59] | <5%
56 | COc1cc2c(cc1OC)C(c1cccc(OCc3ccccc3)c1)CC(=O)N2 (centres unmarked) [Compound 60] | <5%
57 | CCOc1ccccc1C1CC(=O)Nc2cc(OC)c(OC)cc21 (centres unmarked) [Compound 61] | <5%
58 | O=C1CC(c2ccc(F)cc2)c2cc3c(cc2N1)OCCO3 (centres unmarked) [Compound 62] | <5%
59 | CCOc1ccc(C2CC(=O)Nc3cc4c(cc32)OCCO4)cc1OC (centres unmarked) [Compound 63] | <5%
60 | COc1cc2c(cc1OC)C(c1cccc(C)c1)CC(=O)N2 (centres unmarked) [Compound 64] | <5%
61 | COc1cc2c(cc1OC)C(c1cc(OC)c(OC)cc1OC)CC(=O)N2 (centres unmarked) [Compound 65] | <5%
62 | COc1cc2c(cc1OC)C(c1cc(Br)ccc1OC)CC(=O)N2 (centres unmarked) [Compound 66] | <5%
63 | O=C1CC(c2ccccc2[N+](=O)[O-])c2cc3c(cc2N1)OCCO3 (centres unmarked) [Compound 67] | <5%
64 | CSc1ccc(C2CC(=O)Nc3cc4c(cc32)OCCO4)cc1 (centres unmarked) [Compound 68] | <5%
65 | O=C1CC(c2ccccc2F)c2cc3c(cc2N1)OCCO3 (centres unmarked) [Compound 69] | <5%
66 | COc1cc(C2CC(=O)Nc3cc4c(cc32)OCCO4)ccc1OCc1ccccc1 (centres unmarked) [Compound 70] | <5%
67 | CC(C)c1ccc(C2CC(=O)Nc3cc4c(cc32)OCO4)cc1 (centres unmarked) [Compound 71] | <5%

Row | Compound | Assay Value
68 | COc1cc2c(cc1OC)C(c1cc(F)ccc1F)CC(=O)N2 (centres unmarked) [Compound 72] | <5%
69 | CC(C)Oc1ccc(C2CC(=O)Nc3cc4c(cc32)OCCO4)cc1 (centres unmarked) [Compound 73] | <5%
70 | CCOc1cc2c(cc1OCC)C(c1ccccc1F)CC(=O)N2 (centres unmarked) [Compound 74] | <5%
71 | O=C1CC(c2cccc(F)c2F)c2cc3c(cc2N1)OCO3 (centres unmarked) [Compound 75] | <5%
72 | O=C1CC(c2ccc(O)cc2)c2cc3c(cc2N1)OCO3 (centres unmarked) [Compound 76] | <5%
73 | O=C1CC(c2cc(F)cc(F)c2)c2cc3c(cc2N1)OCO3 (centres unmarked) [Compound 77] | <5%
74 | O=C1CC(c2ccc(OC(F)(F)F)cc2)c2cc3c(cc2N1)OCCO3 (centres unmarked) [Compound 78] | <5%
75 | CC(C)c1ccc(C2CC(=O)Nc3cc4c(cc32)OCCO4)cc1 (centres unmarked) [Compound 79] | <5%
76 | CN(C)c1ccc(C2CC(=O)Nc3cc4c(cc32)OCO4)cc1 (centres unmarked) [Compound 80] | <5%
77 | CCOc1ccc(C2CC(=O)Nc3cc4c(cc32)OCO4)cc1 (centres unmarked) [Compound 81] | <5%
78 | O=C1CC(c2ccc(F)cc2F)c2cc3c(cc2N1)OCO3 (centres unmarked) [Compound 82] | <5%
79 | Cc1ccc(C)c(C2CC(=O)Nc3cc4c(cc32)OCO4)c1 (centres unmarked) [Compound 83] | <5%
80 | COc1ccc(C2CC(=O)Nc3cc4c(cc32)OCO4)cc1Cl (centres unmarked) [Compound 84] | <5%
81 | Cc1cccc(C2CC(=O)Nc3cc4c(cc32)OCO4)c1 (centres unmarked) [Compound 85] | <5%
82 | O=C1CC(c2ccccc2)c2cc3c(cc2N1)OCO3 (centres unmarked) [Compound 86] | <5%
83 | O=C1CC(c2ccccc2C(F)(F)F)c2cc3c(cc2N1)OCO3 (centres unmarked) [Compound 87] | <5%
84 | O=C1CC(c2ccc3c(c2)OCO3)c2cc3c(cc2N1)OCO3 (centres unmarked) [Compound 88] | <5%
85 | Cc1ccc(C2CC(=O)Nc3cc4c(cc32)OCO4)cc1Br (centres unmarked) [Compound 89] | <5%
86 | COc1c(O)cccc1C1CC(=O)Nc2cc3c(cc21)OCO3 (centres unmarked) [Compound 90] | <5%
